According to patent US20110263454A1, “Methods of Identifying Functional Characteristics of Promoters, Transcription Modifying Proteins and Transcription Modulating Agents” (Salk Institute for Biological Studies, priority 2008, published 2011):

Assays:
[1] = test system: mCAR promoter; experiment: NHR-promoter luciferase screen, mCAR promoter; type: cell-based, mouse; settings: for luciferase activity normalized to lacZ activity and to a control, mCAR: mCAR promoter-luciferase, CV-1 cells, NHR +/- ligand, control = 1.00; for Luc. act., normalized to lacZ / Normalized Luc. act., normalized to control: mCAR promoter, HR/ligand component
Procedure: (§1) The use, feasibility, and reproducibility of the functional NHR-promoter screen in a 48-well format have been tested validated. Briefly, there were co-expressed 50 ng of each NHR/NHR homodimer or NHR/RXR heterodimer with 100 ng promoter/luciferase construct and 50 ng of LacZ (as a control for transfection efficiency) in CV-1 cells using Fugene HD (Roche) as a transfection reagent (alternatively or additionally, a CMV-YFP construct can be used as a transfection control). Each of the nuclear hormone receptors that were used in these experiments was cloned into a pcDNA3.1 vector and comprised a C-terminally linked V5H6 tag. Twenty-four hours after transfection, appropriate ligands were added, where applicable, (see Table 5 for various ligands and concentrations and after 48 hrs, samples were assayed for luciferase and LacZ activity. To measure for luciferase activity 15 ul of sample was added to 30 ul of luciferase buffer (20 mM tricine, 1.07 mM MgCarbonate, 2.67 mM MgSulfate, 0.1 mM Naz-EDTA, 5 mM DTT, 5 mM ATP, 0.15 mg/ml CoA, 0.5 mM Luciferin), mixed briefly, and run in a Perkin Elmer Victor 5 luminometer. Thus, the functional NHR-promoter screen was used to observe the transcriptional activity of 29 promoters from various physiological pathways including inflammation, lipid and sugar metabolism, cholesterol transport, xenobiotic metabolism, and circadian rhythm.
(§2) The promoters that facilitate transcription of the indicated gene products that were tested using the protocols described herein are listed in the first row of the table. The nuclear hormone receptors and, where applicable, ligands that were assayed for their transcriptional effects on the promoters are listed in the first column of the table. The data represent the luciferase activity of each sample normalized to both the lacZ activity of that sample and to a control, e.g., no NHR or ligand, as customary in the art. As described previously, these normalizations allow the transcriptional activity of each reporter cell to be compared to other samples.
(§3) Tables 7-40 show the transcriptional effects of the hormone receptors, and, where applicable, ligands (orphan receptors are screened without ligand), on each individual promoter. […] The control data of each table are shown in their last rows.

[2] = test system: hG6PD promoter; experiment: NHR-promoter luciferase screen, hG6PD promoter; type: cell-based, human; settings: for Luc. act., normalized to lacZ / Normalized Luc. act., normalized to control: G6PD promoter reporter, co-transfected HR, without or with its ligand; for Normalized Luc. act., normalized to control: relative to control; for luciferase activity normalized to lacZ activity and to a control, hG6PD: hG6PD promoter-luciferase, CV-1 cells, NHR +/- ligand, control = 1.00
Procedure: as §1, §2, §3

[3] = test system: Bmal1 promoter; experiment: NHR-promoter luciferase screen, Bmal1 promoter; type: cell-based, mouse; settings: for Luc. act., normalized to lacZ / Normalized Luc. act., normalized to control: Bmal1 promoter, HR component without or with ligand; for mBmal1 promoter reporter activity: transcription factor +/- ligand, control = 1.00
Procedure: as §1, §2, §3

[4] = test system: RevErba promoter; experiment: NHR-promoter luciferase screen, RevErba (RVRa) promoter; type: cell-based; design: key to mRevErba promoter reporter activity / Normalized Luc. act., normalized to control: luciferase activity normalized to lacZ and to control (no NHR/ligand); settings: for Luc. act., normalized to lacZ / Normalized Luc. act., normalized to control / negative reciprocal of normalized Luc. act. (fold repression; Table 33) / normalized Luc. act. on a logarithmic scale (column without head, Table 33): RVRa promoter; for Luc. act., normalized to lacZ / Normalized Luc. act., normalized to control: HR component without or with ligand; for negative reciprocal of normalized Luc. act. (fold repression; Table 33): given only where activity is below control; for normalized Luc. act. on a logarithmic scale (column without head, Table 33): log10 of activity normalized to control; for mRevErba promoter reporter activity: transcription factor +/- ligand, control = 1.00
Procedure: Briefly, there were co-expressed 50 ng of each NHR/NHR homodimer or NHR/RXR heterodimer with 100 ng promoter/luciferase construct and 50 ng of LacZ (as a control for transfection efficiency) in CV-1 cells using Fugene HD (Roche) as a transfection reagent (alternatively or additionally, a CMV-YFP construct can be used as a transfection control). Each of the nuclear hormone receptors that were used in these experiments was cloned into a pcDNA3.1 vector and comprised a C-terminally linked V5H6 tag.
as §2
The control data of each table are shown in their last rows.

[5] = test system: mABCA1 promoter; experiment: NHR-promoter luciferase screen, mABCA1 promoter; type: cell-based, mouse; settings: for Luc. act., normalized to lacZ / Normalized Luc. act., normalized to control: ABCA1 promoter, hormone receptor with or without its ligand; for Normalized Luc. act., normalized to control: relative to control; for mABCA1 promoter reporter activity: transcription factor +/- ligand, control = 1.00
Procedure: as §1, §2, §3

| Substance | luciferase activity normalized to lacZ activity and to a control, mCAR [1] | Luc. act., normalized to lacZ [1] | Normalized Luc. act., normalized to control [1] | Luc. act., normalized to lacZ [2] | Normalized Luc. act., normalized to control [2] | luciferase activity normalized to lacZ activity and to a control, hG6PD [2] | Luc. act., normalized to lacZ [3] | Normalized Luc. act., normalized to control [3] | mBmal1 promoter reporter activity [3] | Luc. act., normalized to lacZ [4] | Normalized Luc. act., normalized to control [4] | negative reciprocal of normalized Luc. act. (fold repression; Table 33) [4] | normalized Luc. act. on a logarithmic scale (column without head, Table 33) [4] | mRevErba promoter reporter activity [4] | Luc. act., normalized to lacZ [5] | Normalized Luc. act., normalized to control [5] | mABCA1 promoter reporter activity [5] |
| --- | --- | --- | --- | --- | --- | --- | --- | --- | --- | --- | --- | --- | --- | --- | --- | --- | --- |
| VDR: Vitamin D Receptor (NR1I1), cDNA driver | 0.69 | 26.5 | 0.7 | 43.1 | 1.2 | 1.15 | 22.0 | 1.4 | 1.40 | 27.5 | 1.0 | −1.018 | −0.01 | 0.98 | 15.2 | 2.7 | 2.71 |
| PNR: Photoreceptor-specific Nuclear Receptor (NR2E3), cDNA driver | 0.55 | 21.0 | 0.6 | 45.9 | 1.2 | 1.23 | 7.6 | 0.5 | 0.49 | 7.1 | 0.3 | −3.936 | −0.60 | 0.25 | 9.9 | 1.8 | 1.76 |
| GR: Glucocorticoid Receptor (NR3C1), cDNA driver | 0.23 | 8.74 | 0.2 | 22.3 | 0.6 | 0.60 | 13.2 | 0.8 | 0.84 | 12.3 | 0.4 | −2.269 | −0.36 | 0.44 | 8.5 | 1.5 | 1.52 |
| NR4a1: NR4a1 (NR4A1; NUR77), nuclear hormone receptor cDNA driver | 0.94 | 35.66 | 0.9 | 77.6 | 2.1 | 2.07 | 15.7 | 1.0 | 1.00 | 24.6 | 0.9 | −1.1361 | −0.06 | 0.88 | 11.4 | 2.0 | 2.04 |
| ERR1: Estrogen Related Receptor α (NR3B1, ERRa), cDNA driver | 1.07 | 40.9 | 1.1 | 59.1 | 1.6 | 1.58 | 13.6 | 0.9 | 0.87 | 33.3 | 1.2 | – | 0.08 | 1.19 | 8.2 | 1.5 | 1.47 |
